{"source": "paper PMC9329436", "about": "“Optimization of the 4-anilinoquin(az)oline scaffold as epidermal growth factor receptor (EGFR) inhibitors for chordoma utilizing a toxicology profiling assay platform” (Scientific Reports, 2022)", "format_in_all_cases": "biochemical", "key": {"[1]": {"molecular_target": "320 wild-type protein kinases (Homo sapiens, UniProt P29317)", "conditions": "singlicate", "from_the_text": "(§1) Table S4. Profiling of two compounds at two concentrations against 320 wild-type protein kinases; singlicate measurement; Residual activities (% of control)."}, "[2]": {"molecular_target": "320 wild-type protein kinases (Homo sapiens, UniProt Q07912)", "sequence (Q07912 whole entry)": "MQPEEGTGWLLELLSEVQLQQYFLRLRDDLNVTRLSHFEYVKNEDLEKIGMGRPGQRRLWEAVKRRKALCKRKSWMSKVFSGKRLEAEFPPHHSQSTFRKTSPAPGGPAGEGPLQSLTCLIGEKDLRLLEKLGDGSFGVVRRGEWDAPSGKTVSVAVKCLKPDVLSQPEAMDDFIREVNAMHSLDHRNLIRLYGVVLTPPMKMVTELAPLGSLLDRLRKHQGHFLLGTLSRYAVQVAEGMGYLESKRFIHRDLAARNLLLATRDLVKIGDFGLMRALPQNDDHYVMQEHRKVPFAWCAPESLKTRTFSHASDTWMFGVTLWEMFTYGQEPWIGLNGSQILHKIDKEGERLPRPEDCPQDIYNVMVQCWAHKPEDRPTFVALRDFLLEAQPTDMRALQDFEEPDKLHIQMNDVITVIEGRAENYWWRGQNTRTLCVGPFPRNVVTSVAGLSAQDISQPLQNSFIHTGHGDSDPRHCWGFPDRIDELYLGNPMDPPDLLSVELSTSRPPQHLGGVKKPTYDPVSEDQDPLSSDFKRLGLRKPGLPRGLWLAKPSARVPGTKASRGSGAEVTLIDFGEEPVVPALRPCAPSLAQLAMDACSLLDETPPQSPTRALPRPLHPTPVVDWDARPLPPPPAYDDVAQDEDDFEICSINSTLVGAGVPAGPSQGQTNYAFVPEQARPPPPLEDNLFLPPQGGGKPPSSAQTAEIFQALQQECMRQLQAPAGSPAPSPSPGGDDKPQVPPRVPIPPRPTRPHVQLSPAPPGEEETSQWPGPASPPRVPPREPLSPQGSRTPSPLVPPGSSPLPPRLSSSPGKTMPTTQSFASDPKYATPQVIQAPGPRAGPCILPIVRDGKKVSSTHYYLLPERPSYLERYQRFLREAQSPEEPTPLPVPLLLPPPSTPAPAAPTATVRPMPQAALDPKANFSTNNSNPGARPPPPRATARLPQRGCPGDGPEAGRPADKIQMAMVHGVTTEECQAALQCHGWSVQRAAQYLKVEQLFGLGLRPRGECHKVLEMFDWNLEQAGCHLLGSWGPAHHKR", "conditions": "singlicate", "from_the_text": "as §1"}, "[3]": {"molecular_target": "320 wild-type protein kinases (Homo sapiens, UniProt P37023)", "sequence (P37023 22-503)": "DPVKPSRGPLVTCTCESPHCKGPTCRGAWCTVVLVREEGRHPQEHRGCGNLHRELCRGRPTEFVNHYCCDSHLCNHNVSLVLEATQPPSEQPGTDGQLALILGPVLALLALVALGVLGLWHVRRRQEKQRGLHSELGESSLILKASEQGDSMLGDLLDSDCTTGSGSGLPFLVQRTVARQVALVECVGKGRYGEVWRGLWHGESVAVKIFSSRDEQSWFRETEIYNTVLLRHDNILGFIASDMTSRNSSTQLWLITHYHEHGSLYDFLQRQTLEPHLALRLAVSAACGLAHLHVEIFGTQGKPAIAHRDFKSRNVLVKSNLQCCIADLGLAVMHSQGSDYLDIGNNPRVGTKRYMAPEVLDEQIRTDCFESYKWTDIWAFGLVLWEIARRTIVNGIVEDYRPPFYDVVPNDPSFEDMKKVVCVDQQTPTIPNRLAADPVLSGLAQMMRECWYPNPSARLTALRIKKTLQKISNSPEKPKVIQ", "conditions": "singlicate", "from_the_text": "as §1"}, "[4]": {"molecular_target": "320 wild-type protein kinases (Homo sapiens, UniProt Q9UM73)", "conditions": "ALK (GST-HIS-tag), singlicate", "from_the_text": "as §1"}, "[5]": {"molecular_target": "320 wild-type protein kinases (Homo sapiens, UniProt P17612)", "conditions": "PKA, singlicate", "from_the_text": "as §1"}, "[6]": {"molecular_target": "320 wild-type protein kinases (Homo sapiens, UniProt P41240)", "conditions": "CSK, singlicate", "from_the_text": "as §1"}, "[7]": {"molecular_target": "T1, 320 wild-type protein kinases (Homo sapiens, UniProt Q9UKI8)", "T1 sequence (Q9UKI8 1-766)": "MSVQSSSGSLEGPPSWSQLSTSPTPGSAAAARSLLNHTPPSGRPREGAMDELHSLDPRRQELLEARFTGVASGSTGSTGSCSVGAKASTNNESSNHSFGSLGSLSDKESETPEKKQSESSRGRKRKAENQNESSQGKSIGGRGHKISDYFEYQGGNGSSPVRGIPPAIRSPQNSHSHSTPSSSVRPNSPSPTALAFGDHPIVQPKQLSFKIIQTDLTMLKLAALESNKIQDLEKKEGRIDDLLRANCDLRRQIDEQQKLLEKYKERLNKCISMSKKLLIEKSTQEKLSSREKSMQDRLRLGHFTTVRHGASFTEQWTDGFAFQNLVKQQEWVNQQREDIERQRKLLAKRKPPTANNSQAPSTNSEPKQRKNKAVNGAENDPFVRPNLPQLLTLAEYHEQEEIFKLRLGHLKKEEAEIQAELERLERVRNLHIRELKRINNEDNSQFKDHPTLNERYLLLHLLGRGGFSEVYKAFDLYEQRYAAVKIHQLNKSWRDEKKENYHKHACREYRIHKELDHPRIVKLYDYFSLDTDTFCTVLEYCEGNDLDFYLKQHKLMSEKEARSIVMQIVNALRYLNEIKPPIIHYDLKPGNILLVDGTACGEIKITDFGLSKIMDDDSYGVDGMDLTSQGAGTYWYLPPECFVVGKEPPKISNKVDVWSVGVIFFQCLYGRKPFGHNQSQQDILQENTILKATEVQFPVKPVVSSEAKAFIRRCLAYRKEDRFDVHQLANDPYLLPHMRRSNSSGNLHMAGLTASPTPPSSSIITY", "conditions": "kinase TLK1, singlicate", "from_the_text": "as §1"}, "[8]": {"molecular_target": "320 wild-type protein kinases (Homo sapiens, UniProt P31749)", "sequence (P31749 whole entry)": "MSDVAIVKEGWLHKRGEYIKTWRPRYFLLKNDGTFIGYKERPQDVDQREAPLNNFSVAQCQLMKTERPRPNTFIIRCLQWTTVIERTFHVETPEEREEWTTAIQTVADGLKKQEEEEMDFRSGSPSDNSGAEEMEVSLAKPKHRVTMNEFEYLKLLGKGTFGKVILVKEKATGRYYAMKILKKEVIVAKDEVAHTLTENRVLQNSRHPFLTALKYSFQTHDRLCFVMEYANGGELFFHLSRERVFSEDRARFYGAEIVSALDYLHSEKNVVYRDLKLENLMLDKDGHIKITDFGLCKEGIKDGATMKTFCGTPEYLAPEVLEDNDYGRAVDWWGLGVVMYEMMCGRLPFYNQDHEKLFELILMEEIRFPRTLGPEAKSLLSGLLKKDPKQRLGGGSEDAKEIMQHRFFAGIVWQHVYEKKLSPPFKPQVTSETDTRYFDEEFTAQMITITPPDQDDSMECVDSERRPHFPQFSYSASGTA", "conditions": "singlicate", "from_the_text": "as §1"}, "[9]": {"molecular_target": "320 wild-type protein kinases (Homo sapiens, UniProt Q9BYT3)", "sequence (Q9BYT3 whole entry)": "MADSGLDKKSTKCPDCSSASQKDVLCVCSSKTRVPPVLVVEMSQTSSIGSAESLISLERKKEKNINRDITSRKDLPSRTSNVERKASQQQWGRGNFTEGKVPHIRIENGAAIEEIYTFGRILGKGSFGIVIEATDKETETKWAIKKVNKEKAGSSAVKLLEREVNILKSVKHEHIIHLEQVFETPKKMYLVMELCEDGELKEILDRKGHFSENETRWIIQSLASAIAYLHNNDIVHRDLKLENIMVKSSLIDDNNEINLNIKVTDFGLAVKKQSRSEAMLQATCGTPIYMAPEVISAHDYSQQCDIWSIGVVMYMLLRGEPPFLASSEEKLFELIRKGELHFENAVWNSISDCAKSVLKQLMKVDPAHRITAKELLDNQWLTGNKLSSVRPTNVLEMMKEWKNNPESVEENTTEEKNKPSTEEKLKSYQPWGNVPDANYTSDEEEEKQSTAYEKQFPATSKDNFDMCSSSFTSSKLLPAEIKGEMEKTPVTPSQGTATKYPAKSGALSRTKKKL", "conditions": "kinase STK33, singlicate", "from_the_text": "as §1"}, "[10]": {"molecular_target": "320 wild-type protein kinases (Homo sapiens, UniProt Q13554)", "conditions": "CAMK2B, singlicate", "from_the_text": "as §1"}, "[11]": {"molecular_target": "320 wild-type protein kinases (Homo sapiens, UniProt P48730)", "conditions": "CK1-delta, singlicate", "from_the_text": "as §1"}, "[12]": {"molecular_target": "320 wild-type protein kinases (Homo sapiens, UniProt Q9Y3S1)", "sequence (Q9Y3S1 whole entry)": "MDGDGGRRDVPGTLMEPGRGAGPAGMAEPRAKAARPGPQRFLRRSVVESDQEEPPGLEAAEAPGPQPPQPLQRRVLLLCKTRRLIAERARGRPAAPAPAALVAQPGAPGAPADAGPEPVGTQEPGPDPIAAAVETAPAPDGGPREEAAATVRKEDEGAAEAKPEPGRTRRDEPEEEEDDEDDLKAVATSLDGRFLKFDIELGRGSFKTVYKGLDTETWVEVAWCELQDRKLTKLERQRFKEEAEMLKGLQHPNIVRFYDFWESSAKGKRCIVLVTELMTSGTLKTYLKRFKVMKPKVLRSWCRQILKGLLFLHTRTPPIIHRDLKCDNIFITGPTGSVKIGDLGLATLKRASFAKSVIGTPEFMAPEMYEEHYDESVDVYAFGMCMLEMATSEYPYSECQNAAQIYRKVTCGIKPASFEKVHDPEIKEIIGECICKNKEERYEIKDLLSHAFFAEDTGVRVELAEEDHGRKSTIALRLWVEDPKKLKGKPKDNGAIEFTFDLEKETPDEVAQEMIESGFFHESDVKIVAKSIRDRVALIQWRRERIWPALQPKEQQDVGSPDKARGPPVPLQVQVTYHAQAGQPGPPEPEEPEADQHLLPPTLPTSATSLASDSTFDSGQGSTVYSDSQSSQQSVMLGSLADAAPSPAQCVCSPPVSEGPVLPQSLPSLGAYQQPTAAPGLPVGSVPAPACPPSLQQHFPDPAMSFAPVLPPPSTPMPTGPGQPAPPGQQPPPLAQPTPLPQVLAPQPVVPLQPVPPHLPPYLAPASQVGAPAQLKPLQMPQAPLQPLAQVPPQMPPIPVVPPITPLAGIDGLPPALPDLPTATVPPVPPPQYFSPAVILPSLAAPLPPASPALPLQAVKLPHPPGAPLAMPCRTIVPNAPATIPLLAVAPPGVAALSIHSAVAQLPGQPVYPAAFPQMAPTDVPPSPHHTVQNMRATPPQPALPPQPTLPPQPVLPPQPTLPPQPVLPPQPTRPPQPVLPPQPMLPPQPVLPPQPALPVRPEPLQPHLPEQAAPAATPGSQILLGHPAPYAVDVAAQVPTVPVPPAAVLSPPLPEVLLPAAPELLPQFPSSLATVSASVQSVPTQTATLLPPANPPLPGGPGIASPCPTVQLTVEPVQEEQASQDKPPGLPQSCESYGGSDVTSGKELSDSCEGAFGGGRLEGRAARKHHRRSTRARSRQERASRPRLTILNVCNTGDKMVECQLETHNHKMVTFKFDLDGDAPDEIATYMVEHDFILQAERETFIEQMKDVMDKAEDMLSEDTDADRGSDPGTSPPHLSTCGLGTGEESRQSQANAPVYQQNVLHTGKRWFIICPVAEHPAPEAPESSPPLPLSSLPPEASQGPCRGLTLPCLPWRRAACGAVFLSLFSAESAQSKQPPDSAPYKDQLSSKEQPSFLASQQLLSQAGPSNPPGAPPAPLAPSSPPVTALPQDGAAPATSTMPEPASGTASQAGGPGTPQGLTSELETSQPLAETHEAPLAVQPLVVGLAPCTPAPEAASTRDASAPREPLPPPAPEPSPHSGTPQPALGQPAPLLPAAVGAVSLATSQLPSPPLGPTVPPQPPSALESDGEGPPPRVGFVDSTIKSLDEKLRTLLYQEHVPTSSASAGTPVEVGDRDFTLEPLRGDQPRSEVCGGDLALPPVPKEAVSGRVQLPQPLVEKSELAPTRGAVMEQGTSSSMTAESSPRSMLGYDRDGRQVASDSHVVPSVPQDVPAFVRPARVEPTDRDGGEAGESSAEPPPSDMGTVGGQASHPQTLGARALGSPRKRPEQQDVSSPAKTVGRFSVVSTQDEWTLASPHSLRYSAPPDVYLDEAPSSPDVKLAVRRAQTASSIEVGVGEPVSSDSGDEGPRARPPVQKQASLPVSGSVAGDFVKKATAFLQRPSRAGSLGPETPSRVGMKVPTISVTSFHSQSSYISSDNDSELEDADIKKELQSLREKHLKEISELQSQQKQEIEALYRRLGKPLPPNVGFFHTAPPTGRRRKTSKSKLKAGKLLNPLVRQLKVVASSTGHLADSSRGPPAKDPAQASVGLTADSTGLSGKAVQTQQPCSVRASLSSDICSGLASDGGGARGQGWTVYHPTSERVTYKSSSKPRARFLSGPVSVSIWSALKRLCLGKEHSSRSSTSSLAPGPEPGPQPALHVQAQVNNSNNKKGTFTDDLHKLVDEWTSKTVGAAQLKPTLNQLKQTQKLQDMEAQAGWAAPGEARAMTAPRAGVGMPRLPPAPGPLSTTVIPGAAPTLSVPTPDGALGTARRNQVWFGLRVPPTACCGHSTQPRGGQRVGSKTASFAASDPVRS", "conditions": "kinase WNK2, singlicate", "from_the_text": "as §1"}, "[13]": {"molecular_target": "T2, 320 wild-type protein kinases (Homo sapiens, UniProt Q8TF76)", "T2 sequence (Q8TF76 1-798)": "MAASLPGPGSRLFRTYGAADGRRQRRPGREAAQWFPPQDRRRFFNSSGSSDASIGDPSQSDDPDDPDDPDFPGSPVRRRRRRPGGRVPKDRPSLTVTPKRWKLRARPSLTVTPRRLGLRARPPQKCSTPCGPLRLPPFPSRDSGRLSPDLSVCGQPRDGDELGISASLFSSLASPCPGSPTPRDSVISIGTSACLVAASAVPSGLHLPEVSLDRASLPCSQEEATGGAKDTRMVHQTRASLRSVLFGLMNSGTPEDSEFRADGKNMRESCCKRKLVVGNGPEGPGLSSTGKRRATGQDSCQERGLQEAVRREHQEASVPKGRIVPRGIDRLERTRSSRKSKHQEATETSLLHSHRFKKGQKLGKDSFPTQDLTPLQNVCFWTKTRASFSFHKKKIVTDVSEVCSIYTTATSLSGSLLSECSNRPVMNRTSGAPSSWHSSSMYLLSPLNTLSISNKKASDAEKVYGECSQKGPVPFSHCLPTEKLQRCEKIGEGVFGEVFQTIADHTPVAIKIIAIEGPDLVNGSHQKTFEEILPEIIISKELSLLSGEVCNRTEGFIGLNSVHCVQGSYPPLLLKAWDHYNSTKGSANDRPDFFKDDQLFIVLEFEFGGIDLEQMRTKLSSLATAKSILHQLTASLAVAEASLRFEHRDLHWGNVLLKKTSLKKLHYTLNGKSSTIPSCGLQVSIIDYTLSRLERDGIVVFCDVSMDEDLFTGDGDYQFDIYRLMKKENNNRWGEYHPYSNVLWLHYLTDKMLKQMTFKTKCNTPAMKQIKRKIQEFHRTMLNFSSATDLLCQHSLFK", "conditions": "singlicate", "from_the_text": "as §1"}, "[14]": {"molecular_target": "320 wild-type protein kinases (Homo sapiens, UniProt Q5VT25)", "conditions": "CDC42BPA, singlicate", "from_the_text": "as §1"}}, "note": "Like-named read-outs stand apart in the source and are kept apart here.", "data": [{"smiles": "C#Cc1cc(Nc2ncnc3cc(I)ccc23)ccc1Cl", "note": "[Compound 41]", "values": [{"measurement": "Residual activity", "setting": "[1]; EPHA2, 1.0E-06 M", "value": "91 % of control"}, {"measurement": "Residual activity", "setting": "[1]; EPHA2, 1.0E-07 M", "value": "90 % of control"}, {"measurement": "Residual activity", "setting": "[2]; ACK1, 1.0E-06 M", "value": "98 % of control"}, {"measurement": "Residual activity", "setting": "[2]; ACK1, 1.0E-07 M", "value": "134 % of control"}, {"measurement": "Residual activity", "setting": "[3]; ACV-RL1, 1.0E-06 M", "value": "105 % of control"}, {"measurement": "Residual activity", "setting": "[3]; ACV-RL1, 1.0E-07 M", "value": "102 % of control"}, {"measurement": "Residual activity", "setting": "[4]; 1.0E-06 M", "value": "93 % of control"}, {"measurement": "Residual activity", "setting": "[4]; 1.0E-07 M", "value": "102 % of control"}, {"measurement": "Residual activity", "setting": "[5]; 1.0E-06 M", "value": "82 % of control"}, {"measurement": "Residual activity", "setting": "[5]; 1.0E-07 M", "value": "88 % of control"}, {"measurement": "Residual activity", "setting": "[6]; 1.0E-06 M", "value": "92 % of control"}, {"measurement": "Residual activity", "setting": "[6]; 1.0E-07 M", "value": "110 % of control"}, {"measurement": "Residual activity, TLK1", "setting": "[7]; assay conc. 1.0E-06 M", "value": "100 % of control"}, {"measurement": "Residual activity, TLK1", "setting": "[7]; assay conc. 1.0E-07 M", "value": "110 % of control"}, {"measurement": "Residual activity", "setting": "[8]; AKT1 aa106-480, 1.0E-06 M", "value": "94 % of control"}, {"measurement": "Residual activity", "setting": "[8]; AKT1 aa106-480, 1.0E-07 M", "value": "96 % of control"}, {"measurement": "Residual activity, STK33", "setting": "[9]; assay conc. 1.0E-06 M", "value": "89 % of control"}, {"measurement": "Residual activity, STK33", "setting": "[9]; assay conc. 1.0E-07 M", "value": "98 % of control"}, {"measurement": "Residual activity", "setting": "[10]; 1.0E-06 M", "value": "86 % of control"}, {"measurement": "Residual activity", "setting": "[10]; 1.0E-07 M", "value": "84 % of control"}, {"measurement": "Residual activity", "setting": "[11]; 1.0E-06 M", "value": "115 % of control"}, {"measurement": "Residual activity", "setting": "[11]; 1.0E-07 M", "value": "134 % of control"}, {"measurement": "Residual activity, WNK2", "setting": "[12]; assay conc. 1.0E-06 M", "value": "82 % of control"}, {"measurement": "Residual activity, WNK2", "setting": "[12]; assay conc. 1.0E-07 M", "value": "108 % of control"}, {"measurement": "Residual activity", "setting": "[13]; GSG2, 1.0E-06 M", "value": "112 % of control"}, {"measurement": "Residual activity", "setting": "[13]; GSG2, 1.0E-07 M", "value": "113 % of control"}, {"measurement": "Residual activity", "setting": "[14]; 1.0E-06 M", "value": "141 % of control"}, {"measurement": "Residual activity", "setting": "[14]; 1.0E-07 M", "value": "140 % of control"}]}, {"smiles": "C#Cc1cc(Nc2ncnc3cc(OC)c(OC)cc23)ccc1Cl", "note": "[Compound 45]", "values": [{"measurement": "Residual activity", "setting": "[1]; EPHA2, 1.0E-06 M", "value": "81 % of control"}, {"measurement": "Residual activity", "setting": "[1]; EPHA2, 1.0E-07 M", "value": "87 % of control"}, {"measurement": "Residual activity", "setting": "[2]; ACK1, 1.0E-06 M", "value": "63 % of control"}, {"measurement": "Residual activity", "setting": "[2]; ACK1, 1.0E-07 M", "value": "100 % of control"}, {"measurement": "Residual activity", "setting": "[3]; ACV-RL1, 1.0E-06 M", "value": "106 % of control"}, {"measurement": "Residual activity", "setting": "[3]; ACV-RL1, 1.0E-07 M", "value": "110 % of control"}, {"measurement": "Residual activity", "setting": "[4]; 1.0E-06 M", "value": "63 % of control"}, {"measurement": "Residual activity", "setting": "[4]; 1.0E-07 M", "value": "102 % of control"}, {"measurement": "Residual activity", "setting": "[5]; 1.0E-06 M", "value": "90 % of control"}, {"measurement": "Residual activity", "setting": "[5]; 1.0E-07 M", "value": "93 % of control"}, {"measurement": "Residual activity", "setting": "[6]; 1.0E-06 M", "value": "92 % of control"}, {"measurement": "Residual activity", "setting": "[6]; 1.0E-07 M", "value": "106 % of control"}, {"measurement": "Residual activity, TLK1", "setting": "[7]; assay conc. 1.0E-06 M", "value": "108 % of control"}, {"measurement": "Residual activity, TLK1", "setting": "[7]; assay conc. 1.0E-07 M", "value": "112 % of control"}, {"measurement": "Residual activity", "setting": "[8]; AKT1 aa106-480, 1.0E-06 M", "value": "101 % of control"}, {"measurement": "Residual activity", "setting": "[8]; AKT1 aa106-480, 1.0E-07 M", "value": "100 % of control"}, {"measurement": "Residual activity, STK33", "setting": "[9]; assay conc. 1.0E-06 M", "value": "76 % of control"}, {"measurement": "Residual activity, STK33", "setting": "[9]; assay conc. 1.0E-07 M", "value": "100 % of control"}, {"measurement": "Residual activity", "setting": "[10]; 1.0E-06 M", "value": "103 % of control"}, {"measurement": "Residual activity", "setting": "[10]; 1.0E-07 M", "value": "81 % of control"}, {"measurement": "Residual activity", "setting": "[11]; 1.0E-06 M", "value": "111 % of control"}, {"measurement": "Residual activity", "setting": "[11]; 1.0E-07 M", "value": "129 % of control"}, {"measurement": "Residual activity, WNK2", "setting": "[12]; assay conc. 1.0E-06 M", "value": "92 % of control"}, {"measurement": "Residual activity, WNK2", "setting": "[12]; assay conc. 1.0E-07 M", "value": "97 % of control"}, {"measurement": "Residual activity", "setting": "[13]; GSG2, 1.0E-06 M", "value": "109 % of control"}, {"measurement": "Residual activity", "setting": "[13]; GSG2, 1.0E-07 M", "value": "115 % of control"}, {"measurement": "Residual activity", "setting": "[14]; 1.0E-06 M", "value": "113 % of control"}, {"measurement": "Residual activity", "setting": "[14]; 1.0E-07 M", "value": "114 % of control"}]}]}
